Assay [1] has as its target T1, Alpha-2B adrenergic receptor (Homo sapiens, UniProt P18089).
T1 sequence (P18089 whole entry): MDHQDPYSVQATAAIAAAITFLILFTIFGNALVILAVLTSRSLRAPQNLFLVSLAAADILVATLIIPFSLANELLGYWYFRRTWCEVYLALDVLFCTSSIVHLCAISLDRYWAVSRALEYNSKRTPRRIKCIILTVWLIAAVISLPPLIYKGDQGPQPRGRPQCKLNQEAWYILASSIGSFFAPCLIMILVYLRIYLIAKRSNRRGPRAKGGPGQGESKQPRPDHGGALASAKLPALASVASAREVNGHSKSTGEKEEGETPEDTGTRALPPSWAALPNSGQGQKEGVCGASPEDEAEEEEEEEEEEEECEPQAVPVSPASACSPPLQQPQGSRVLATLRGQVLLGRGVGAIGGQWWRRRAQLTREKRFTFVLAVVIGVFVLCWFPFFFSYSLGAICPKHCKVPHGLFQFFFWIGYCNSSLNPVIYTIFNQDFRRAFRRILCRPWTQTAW
Briefly: Binding affinity against Alpha-2B adrenergic receptor from human clones.

Assay [2] deals with T2, Alpha-2A adrenergic receptor (Rattus norvegicus, UniProt P22909).
T2 sequence (P22909 whole entry): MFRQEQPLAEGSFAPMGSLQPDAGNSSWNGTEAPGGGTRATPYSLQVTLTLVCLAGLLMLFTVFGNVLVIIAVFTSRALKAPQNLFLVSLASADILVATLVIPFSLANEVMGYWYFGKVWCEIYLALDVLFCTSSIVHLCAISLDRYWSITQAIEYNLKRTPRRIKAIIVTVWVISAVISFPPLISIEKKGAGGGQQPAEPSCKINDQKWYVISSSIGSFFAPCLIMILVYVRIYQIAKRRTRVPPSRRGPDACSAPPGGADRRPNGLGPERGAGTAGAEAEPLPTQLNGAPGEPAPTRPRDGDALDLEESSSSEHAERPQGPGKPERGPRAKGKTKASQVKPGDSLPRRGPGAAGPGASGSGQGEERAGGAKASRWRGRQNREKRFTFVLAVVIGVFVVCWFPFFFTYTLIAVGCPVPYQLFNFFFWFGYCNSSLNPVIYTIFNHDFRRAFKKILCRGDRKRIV
Briefly: The compound was tested for binding affinity against alpha-2D adrenergic receptor, from rat clones.

Assay [3] has as its target T3, Alpha-2C adrenergic receptor (Homo sapiens, UniProt P18825).
T3 sequence (P18825 whole entry): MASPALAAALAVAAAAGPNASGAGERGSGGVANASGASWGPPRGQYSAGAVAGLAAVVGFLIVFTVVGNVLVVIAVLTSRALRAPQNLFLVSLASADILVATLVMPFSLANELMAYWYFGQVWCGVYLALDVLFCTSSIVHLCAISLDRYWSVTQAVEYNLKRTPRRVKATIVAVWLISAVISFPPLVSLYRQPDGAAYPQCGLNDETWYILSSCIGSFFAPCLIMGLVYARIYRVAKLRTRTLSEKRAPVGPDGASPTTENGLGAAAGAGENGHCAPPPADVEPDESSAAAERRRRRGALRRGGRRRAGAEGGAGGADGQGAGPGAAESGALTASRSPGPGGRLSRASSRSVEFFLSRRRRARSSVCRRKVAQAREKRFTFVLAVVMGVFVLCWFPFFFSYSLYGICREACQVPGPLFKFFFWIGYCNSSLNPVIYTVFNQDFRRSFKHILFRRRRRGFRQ
Briefly: Binding affinity against Alpha-2C adrenergic receptor from human clones.

The target of assay [4] is T4, Alpha-2A adrenergic receptor (Homo sapiens, UniProt P08913).
T4 sequence (P08913 whole entry): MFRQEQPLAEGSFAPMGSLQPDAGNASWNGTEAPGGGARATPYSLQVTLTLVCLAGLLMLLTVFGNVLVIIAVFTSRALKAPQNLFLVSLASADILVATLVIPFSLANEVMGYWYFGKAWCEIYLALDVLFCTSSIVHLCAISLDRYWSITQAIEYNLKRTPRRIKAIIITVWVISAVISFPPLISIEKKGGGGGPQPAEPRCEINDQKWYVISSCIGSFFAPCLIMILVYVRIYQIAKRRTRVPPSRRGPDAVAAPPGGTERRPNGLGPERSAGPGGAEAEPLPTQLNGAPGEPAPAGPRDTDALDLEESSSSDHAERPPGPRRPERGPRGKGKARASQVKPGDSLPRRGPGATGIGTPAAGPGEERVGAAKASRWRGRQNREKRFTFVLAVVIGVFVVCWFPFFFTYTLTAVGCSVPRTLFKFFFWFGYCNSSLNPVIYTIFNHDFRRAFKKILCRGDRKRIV
Briefly: Binding affinity against Alpha-2A adrenergic receptor, from human clones.

In assay [5] the target is T5, Alpha-1A adrenergic receptor (Bos taurus, UniProt P18130).
T5 sequence (P18130 whole entry): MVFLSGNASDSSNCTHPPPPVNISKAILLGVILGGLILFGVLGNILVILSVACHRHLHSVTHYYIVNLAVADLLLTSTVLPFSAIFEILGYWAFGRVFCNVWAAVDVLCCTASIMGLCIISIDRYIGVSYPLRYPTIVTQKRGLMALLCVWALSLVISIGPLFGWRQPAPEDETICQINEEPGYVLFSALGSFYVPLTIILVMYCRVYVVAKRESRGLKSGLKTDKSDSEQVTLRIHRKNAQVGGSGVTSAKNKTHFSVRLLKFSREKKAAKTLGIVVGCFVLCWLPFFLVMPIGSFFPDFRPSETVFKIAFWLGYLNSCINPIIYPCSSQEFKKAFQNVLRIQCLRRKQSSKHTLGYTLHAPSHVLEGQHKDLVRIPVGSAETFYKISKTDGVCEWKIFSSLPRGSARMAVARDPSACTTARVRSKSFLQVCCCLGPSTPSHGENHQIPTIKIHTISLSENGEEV
Briefly: Binding affinity against Alpha-1A adrenergic receptor from bovine clone.

For assay [6], the target named is T6, Alpha-1D adrenergic receptor (Rattus norvegicus, UniProt P23944).
T6 sequence (P23944 whole entry): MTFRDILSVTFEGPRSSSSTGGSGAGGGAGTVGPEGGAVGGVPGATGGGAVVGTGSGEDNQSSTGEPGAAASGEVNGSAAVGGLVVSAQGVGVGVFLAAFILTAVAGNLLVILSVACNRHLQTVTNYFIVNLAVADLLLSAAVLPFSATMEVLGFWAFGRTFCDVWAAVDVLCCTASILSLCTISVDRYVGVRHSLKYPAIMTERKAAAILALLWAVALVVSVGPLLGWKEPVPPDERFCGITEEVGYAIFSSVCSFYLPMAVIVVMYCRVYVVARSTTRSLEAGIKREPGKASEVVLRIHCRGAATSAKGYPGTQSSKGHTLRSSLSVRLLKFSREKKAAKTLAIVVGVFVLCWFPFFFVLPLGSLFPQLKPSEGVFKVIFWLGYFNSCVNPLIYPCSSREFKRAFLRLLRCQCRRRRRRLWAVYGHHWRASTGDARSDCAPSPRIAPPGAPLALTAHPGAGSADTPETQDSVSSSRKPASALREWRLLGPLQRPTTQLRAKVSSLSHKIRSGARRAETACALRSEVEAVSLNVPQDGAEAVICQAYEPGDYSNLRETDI
Briefly: Binding affinity against Alpha-1D adrenergic receptor, from rat clones.

For assay [7], the target named is T7, Alpha-1B adrenergic receptor (Homo sapiens, UniProt P35368).
T7 sequence (P35368 whole entry): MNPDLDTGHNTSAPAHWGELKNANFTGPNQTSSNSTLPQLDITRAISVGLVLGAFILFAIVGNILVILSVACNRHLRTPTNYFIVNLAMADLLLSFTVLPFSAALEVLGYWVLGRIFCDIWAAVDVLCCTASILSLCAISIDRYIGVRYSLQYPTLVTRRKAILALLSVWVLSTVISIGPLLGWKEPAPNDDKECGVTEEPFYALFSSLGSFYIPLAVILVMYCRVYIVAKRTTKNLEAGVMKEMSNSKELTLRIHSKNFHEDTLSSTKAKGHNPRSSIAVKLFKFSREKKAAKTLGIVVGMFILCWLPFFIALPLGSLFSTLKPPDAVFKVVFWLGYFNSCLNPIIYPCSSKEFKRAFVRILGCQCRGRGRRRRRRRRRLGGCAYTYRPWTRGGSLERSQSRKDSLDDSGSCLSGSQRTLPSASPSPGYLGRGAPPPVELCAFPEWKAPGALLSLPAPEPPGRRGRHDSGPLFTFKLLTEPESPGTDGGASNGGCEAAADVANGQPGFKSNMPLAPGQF
Briefly: Binding affinity against Alpha-1B adrenergic receptor from human clone.

The target of assay [8] is T8, Alpha-1D adrenergic receptor (Homo sapiens, UniProt P25100).
T8 sequence (P25100 whole entry): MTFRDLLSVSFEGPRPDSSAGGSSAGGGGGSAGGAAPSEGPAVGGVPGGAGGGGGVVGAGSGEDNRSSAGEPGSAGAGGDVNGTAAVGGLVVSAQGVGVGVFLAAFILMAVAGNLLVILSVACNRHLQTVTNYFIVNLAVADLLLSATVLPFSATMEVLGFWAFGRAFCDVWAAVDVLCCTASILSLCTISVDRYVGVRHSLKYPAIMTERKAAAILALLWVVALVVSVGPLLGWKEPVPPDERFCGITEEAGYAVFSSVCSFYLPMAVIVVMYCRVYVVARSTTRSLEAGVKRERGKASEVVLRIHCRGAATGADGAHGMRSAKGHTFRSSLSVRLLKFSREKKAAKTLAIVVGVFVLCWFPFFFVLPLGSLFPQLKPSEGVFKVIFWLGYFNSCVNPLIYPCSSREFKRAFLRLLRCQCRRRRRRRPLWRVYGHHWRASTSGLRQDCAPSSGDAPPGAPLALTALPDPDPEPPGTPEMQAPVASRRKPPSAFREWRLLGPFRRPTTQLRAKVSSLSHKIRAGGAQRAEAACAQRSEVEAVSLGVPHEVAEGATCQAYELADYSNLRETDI
Briefly: Binding affinity against Alpha-1D adrenergic receptor, from human clones.

For assay [9], the target named is T9, Alpha-2A adrenergic receptor (Bos taurus, UniProt Q28838).
T9 sequence (Q28838 whole entry): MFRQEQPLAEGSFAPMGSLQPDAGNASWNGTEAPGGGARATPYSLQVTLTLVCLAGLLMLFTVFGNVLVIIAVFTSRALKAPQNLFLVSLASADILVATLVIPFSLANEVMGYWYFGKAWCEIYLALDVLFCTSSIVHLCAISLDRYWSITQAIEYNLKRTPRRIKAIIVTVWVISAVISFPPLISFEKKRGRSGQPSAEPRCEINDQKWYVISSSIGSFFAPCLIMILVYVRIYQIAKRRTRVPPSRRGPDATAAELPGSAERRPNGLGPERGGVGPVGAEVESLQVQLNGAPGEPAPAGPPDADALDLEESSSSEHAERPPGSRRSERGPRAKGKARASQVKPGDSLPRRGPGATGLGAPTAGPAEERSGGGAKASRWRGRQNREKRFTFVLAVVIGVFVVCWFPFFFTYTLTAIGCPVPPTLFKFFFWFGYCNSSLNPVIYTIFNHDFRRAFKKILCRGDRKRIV
Briefly: Compound was evaluated for inhibition of binding of [3H]MK-91 to Alpha-2 adrenergic receptor in bovine pineal.

In assay [10] the target is T10, Alpha-2A adrenergic receptor (Sus scrofa, UniProt P18871).
T10 sequence (P18871 whole entry): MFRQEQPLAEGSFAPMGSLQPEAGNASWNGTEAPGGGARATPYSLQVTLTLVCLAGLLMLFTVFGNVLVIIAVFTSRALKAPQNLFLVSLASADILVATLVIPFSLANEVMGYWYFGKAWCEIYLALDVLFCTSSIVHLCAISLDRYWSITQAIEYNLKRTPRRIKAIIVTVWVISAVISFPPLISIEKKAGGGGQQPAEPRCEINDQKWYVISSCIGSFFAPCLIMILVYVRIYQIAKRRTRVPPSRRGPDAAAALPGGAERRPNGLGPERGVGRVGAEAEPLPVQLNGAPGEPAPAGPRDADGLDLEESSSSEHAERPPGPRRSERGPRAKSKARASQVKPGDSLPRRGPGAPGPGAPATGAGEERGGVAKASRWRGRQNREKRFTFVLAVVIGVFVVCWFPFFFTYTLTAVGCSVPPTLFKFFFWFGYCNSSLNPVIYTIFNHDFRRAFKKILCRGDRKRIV

Data on six molecules can be found in ChEMBL document CHEMBL1128530, “Alpha- and beta-adrenoceptors: from the gene to the clinic. 1. Molecular biology and adrenoceptor subclassification” (J Med Chem, 1995).

The Ki is a measure of affinity in units of concentration, obtained from inhibition or displacement. Lower therefore signals a stronger hold on the target. `CC(C)=CCOc1ccc(Cl)c2c1CCN(C)CC2`: the Ki was determined as 142 nM in [1], 313 nM in [2], 64 nM in assay [3] and 114 nM in [4].

For `COc1cc2c(cc1OC)CN(c1cc(N)c3cc(OC)c(OC)cc3n1)CC2` [ABANOQUIL], the inhibition constant Ki in assay [5] and in assay [6] was 0.03 nM each time.

For the molecule `COc1cc2nc(N(C)CCCNC(=O)C3CCCO3)nc(N)c2cc1OC` (stereo unspecified) [ALFUZOSIN], the Ki in assay [7] amounted to 2.8 nM; in [6], 3.5 nM; in assay [8], 3.6 nM.

Turning to `COc1cc2nc(N3CCN(C(=O)c4ccco4)CC3)nc(N)c2cc1OC` [PRAZOSIN], the results for the inhibition constant Ki in [9] and in [10] were 106 nM and 4100 nM, respectively.

In turn, `COC(=O)[C@H]1[C@H]2C[C@H]3c4[nH]c5ccccc5c4CCN3C[C@H]2CC[C@@H]1O` [RAUWOLSCINE] came in with a Ki in [6] of 35 nM.

`COc1cc2nc(N3CCN(C(=O)C4CCCO4)CC3)nc(N)c2cc1OC` (stereo unspecified) [TERAZOSIN]: the inhibition constant Ki came out at 26 nM in assay [5], 3700 nM in [4], 35 nM in [6] and 3.5 nM in assay [8].
